Assay results taken from patent US4355040A, “Hypotensive imidazole-5-acetic acid derivatives” (Takeda Chemical Industries, Ltd., priority 1979, dated 1982).
Read-outs that look alike come from different tables or passages of the source.

Legend:
[1] = tested on: angiotensin II-induced elevation of blood pressure; assay: Inhibitory activity against angiotensin II-induced elevation of blood pressure in rats; format: in vivo, Male SD rats; conditions: for inhibition in vivo at 0.03 mg/kg / inhibition in vivo at 3 mg/kg / inhibition in vivo at 0.5 mg/kg / inhibition in vivo at 0.1 mg/kg / inhibition in vivo at 0.3 mg/kg: Rattus norvegicus, iv, A II 20 ng/kg/min; for inhibition in vivo at 0.03 mg/kg: 0.03 mg/kg intravenously; for inhibition in vivo at 3 mg/kg: 3.0 mg/kg intravenously; for inhibition in vivo at 0.5 mg/kg: 0.5 mg/kg intravenously; for inhibition in vivo at 0.1 mg/kg: 0.1 mg/kg intravenously; for inhibition in vivo at 0.3 mg/kg: 0.3 mg/kg intravenously
[2] = tested on: angiotensin II (aortic blood vessel of rabbits); assay: Antagonistic effect on angiotensin II (A II)-induced tension, aortic blood vessel of rabbits; format: cell-based; conditions: Oryctolagus cuniculus, 0.25 h, A II 4×10^-9 M, 15 minutes
Text: Antagonistic effect of the compound (I) of the present invention on angiotensin II (hereinafter referred to briefly as "A II") (with aortic blood vessel of rabbits)
The blood-vessel preparation and reaction were done in accordance with the method as described in "European Journal of Pharmacology", 18, 316 (1972). […] [formula] where; T1 =Change in isometric tension of the blood vessel brought about by A II without a test drug substance (g)

[3] = 10 min, 10 min, read-out: Inhibition (%), after 10 min.
[4] = 0.5 h, 30 min, read-out: Inhibition (%), after 30 min.
[5] = 1.5 h, 90 min, read-out: Inhibition (%), after 90 min.

Question: `CCCCOc1ccc(Cn2c(-c3ccccc3)nc(Cl)c2CC(=O)O)cc1` [drawing 136] was tested. Which inhibition in vivo at 0.03 mg/kg [1, 3] did it give?
Answer: The inhibition in vivo at 0.03 mg/kg was 17%.

Question: What about the inhibition in vivo at 3 mg/kg [1, 3] of the same molecule?
Answer: Its inhibition in vivo at 3 mg/kg is 20%.

Question: What about the inhibition in vivo at 0.03 mg/kg [1, 4] of the same molecule?
Answer: Its inhibition in vivo at 0.03 mg/kg is 46.5%.

Question: And the inhibition in vivo at 3 mg/kg [1, 4]?
Answer: The inhibition in vivo at 3 mg/kg was 40%.

Question: What about the inhibition in vivo at 0.03 mg/kg [1, 5] of the same molecule?
Answer: The inhibition in vivo at 0.03 mg/kg was 40%.

Question: What about the inhibition in vivo at 3 mg/kg [1, 5] of the same molecule?
Answer: The inhibition in vivo at 3 mg/kg was 0%.

Question: How did the inhibition in vivo at 0.5 mg/kg [1, 3] turn out when `COc1ccc(Cn2c(-c3ccccc3)nc(Cl)c2CC(=O)O)cc1C` [drawing 137] was run?
Answer: Its inhibition in vivo at 0.5 mg/kg is 33 ± 15%.

Question: And the inhibition in vivo at 0.5 mg/kg [1, 4]?
Answer: The inhibition in vivo at 0.5 mg/kg was 60 ± 18%.

Question: And the inhibition in vivo at 0.5 mg/kg [1, 5]?
Answer: The inhibition in vivo at 0.5 mg/kg was 62 ± 7%.

Question: What does the source list for `CCCCc1nc(Cl)c(CC(=O)O)n1Cc1ccccc1Cl` [n-C4 H9 / 2-Cl / H / H]?
Answer: inhibition in vivo at 0.1 mg/kg [1, 3]: 38%; inhibition in vivo at 0.1 mg/kg [1, 4]: 100%; inhibition in vivo at 0.1 mg/kg [1, 5]: 86%; inhibition at 0.1 µM ([2]; 10^-7 M drug substance): 75%

Question: Which results are given for `CCCCc1nc(Cl)c(CC(=O)O)n1Cc1ccccc1` [n-C4 H9 / H / H / H, 1-Benzyl-2-n-butyl-4-chloroimidazole-5-acetic acid]?
Answer: inhibition in vivo at 0.1 mg/kg [1, 3]: 19.6 ± 1.5%; inhibition in vivo at 0.3 mg/kg [1, 3]: 25%; inhibition in vivo at 0.1 mg/kg [1, 4]: 64.3 ± 15.3%; inhibition in vivo at 0.3 mg/kg [1, 4]: 94%; inhibition in vivo at 0.1 mg/kg [1, 5]: 60 ± 21.5%; inhibition in vivo at 0.3 mg/kg [1, 5]: 94%; inhibition at 1 µM ([2]; 10^-6 M drug substance, read-out: Inhibition): 55%

Question: Which “elevation of blood pressure after the infusion of A II, as compared with the one before the infusion” value ([1]; A II 20 ng/kg/min continuous intravenous infusion, 75 cases, no test drug) does the source give for “A II: angiotensin II (hereinafter referred to briefly as "A II") (DRVYIHPF; Angiotensin-2; UniProt P01019 25-32, looked up) [reference compound]” here?
Answer: The value was 45.5±2.1 mmHg.
